Results on 26 compounds are retold here after US9914731B2, “Pyrazolo[1,5-a]pyridine derivatives and methods of their use” (Ignyta, Inc., priority 2013, dated 2018).

For this test, the target named is recombinant human baculovirus-expressed cMET (Homo sapiens (Human), UniProt P08581). In words: c-MET kinase assay (HTRF KinEASE). The class given is biochemical. The following applies: average of two or more determinations; read-out: c-MET IC50. In general terms: Time-resolved FRET reads energy transfer from a long-lived donor to a nearby acceptor.
A word on the IC50: it is the concentration at which inhibition is half-maximal. Take `CCn1cc(C(=O)Nc2ccc(Oc3cc(Nc4ccccn4)cn4nccc34)c(F)c2)c(=O)n(-c2ccc(F)cc2)c1=O` [Example 86, 1-Ethyl-3-(4-fluoro-phenyl)-2,4-dioxo-1,2,3,4-tetrahydro-pyrimidine-5-carboxylic acid{3-fluoro-4-[6-(pyridin-2-ylamino)-pyrazolo[1,5-a]pyridin-4-yloxy]-phenyl}-amide]: the IC50 is 10 to 100 nM.
Regarding `Cn1cnc(-c2cc(Oc3ccc(NC(=O)C4(C(=O)Nc5ccc(F)cc5)CC4)cc3F)c3ccnn3c2)c1` [Example 108, Cyclopropane-1,1-dicarboxylic acid{3-fluoro-4-[6-(1-methyl-1H-imidazol-4-yl)-pyrazolo[1,5-a]pyridin-4-yloxy]-phenyl}-amide(4-fluoro-phenyl)-amide], the half-maximal inhibitory concentration (IC50) was below 10 nM.
With `CC(=O)Nc1cc(Oc2ccc(NC(=O)c3cn(C(C)C)c(=O)n(-c4ccc(F)cc4)c3=O)cc2F)c2ccnn2c1` [Example 143, 3-(4-Fluoro-phenyl)-1-isopropyl-2,4-dioxo-1,2,3,4-tetrahydro-pyrimidine-5-carboxylic acid[4-(6-acetylamino-pyrazolo[1,5-a]pyridin-4-yloxy)-3-fluoro-phenyl]-amide], the IC50 is below 10 nM.
Consider `CC(C)n1cc(C(=O)Nc2ccc(Oc3cc(Nc4ncccn4)cn4nccc34)c(F)c2)c(=O)n(-c2ccc(F)cc2)c1=O` [Example 85, 3-(4-Fluoro-phenyl)-1-isopropyl-2,4-dioxo-1,2,3,4-tetrahydro-pyrimidine-5-carboxylic acid{3-fluoro-4-[6-(pyrimidin-2-ylamino)-pyrazolo[1,5-a]pyridin-4-yloxy]-phenyl}-amide], for which the IC50 is below 10 nM.
As to `CN1CCN(c2ccc(-c3cc(Oc4ccc(NC(=O)c5cccn(-c6ccc(F)cc6)c5=O)cc4F)c4ccnn4c3)cn2)CC1` [Example 37, 1-(4-Fluoro-phenyl)-2-oxo-1,2-dihydro-pyridine-3-carboxylic acid (3-fluoro-4-{6-[6-(4-methyl-piperazin-1-yl)-pyridin-3-yl]-pyrazolo[1,5-a]pyridin-4-yloxy}-phenyl)-amide], the IC50 was below 10 nM.
As for `O=C(Nc1ccc(Oc2cccn3nccc23)c(F)c1)c1cccn(-c2ccc(F)cc2)c1=O` [Example 4, 1-(4-Fluoro-phenyl)-2-oxo-1,2-dihydro-pyridine-3-carboxylic acid [3-fluoro-4-(pyrazolo[1,5-a]pyridin-4-yloxy)-phenyl]-amide], the IC50 is below 10 nM.
Regarding `CCOc1ccn(-c2ccc(F)cc2)c(=O)c1C(=O)Nc1ccc(Oc2cccn3nccc23)c(F)c1` [Example 13, 4-Ethoxy-1-(4-fluoro-phenyl)-2-oxo-1,2-dihydro-pyridine-3-carboxylic acid [3-fluoro-4-(pyrazolo[1,5-a]pyridin-4-yloxy)-phenyl]-amide], the IC50 was below 10 nM.
With “1-Methyl-5-trifluoromethyl-1H-pyrazole-4-carboxylic acid [4-(pyrazolo[1, 5-a]pyridin-4-yloxy)-phenyl]-amide [Example 17]”, the IC50 lay in the range of 1000 to 10000 nM.
Regarding `CC(C)n1cc(C(=O)Nc2ccc(Oc3cc(-c4cn(C)cn4)cn4nccc34)c(O)c2)c(=O)n(-c2ccc(F)cc2)c1=O` [Example 122, 3-(4-Fluoro-phenyl)-1-isopropyl-2,4-dioxo-1,2,3,4-tetrahydro-pyrimidine-5-carboxylic acid{3-hydroxy-4-[6-(1-methyl-1H-imidazol-4-yl)-pyrazolo[1,5-a]pyridin-4-yloxy]-phenyl}-amide], the IC50 is 10 to 100 nM.
Take `CN1CCN(c2ccc(-c3cc(Oc4ccc(NC(=O)C5(C(=O)Nc6ccc(F)cc6)CC5)cc4F)c4ccnn4c3)cn2)CC1` [Example 36, Cyclopropane-1,1-dicarboxylic acid (3-fluoro-4-{6-[6-(4-methyl-piperazin-1-yl)-pyridin-3-yl]-pyrazolo[1,5-a]pyridin-4-yloxy}-phenyl)-amide (4-fluoro-phenyl)-amide]: the IC50 was below 10 nM.
Regarding `CCn1cc(C(=O)Nc2ccc(Oc3cc(-c4cccc(C)n4)cn4nccc34)c(F)c2)c(=O)n(-c2ccc(F)cc2)c1=O` [Example 136, 1-Ethyl-3-(4-fluoro-phenyl)-2,4-dioxo-1,2,3,4-tetrahydro-pyrimidine-5-carboxylic acid{3-fluoro-4-[6-(6-methyl-pyridin-2-yl)-pyrazolo[1,5-a]pyridin-4-yloxy]-phenyl}-amide], the IC50 was 10 to 100 nM.
For the compound `O=C(Nc1ccc(Oc2cccn3nccc23)c(F)c1)c1c(I)ccn(-c2ccc(F)cc2)c1=O` [Example 12, 1-(4-Fluoro-phenyl)-4-iodo-2-oxo-1,2-dihydro-pyridine-3-carboxylic acid [3-fluoro-4-(pyrazolo[1,5-a]pyridin-4-yloxy)-phenyl]-amide], the IC50 lay in the range of 10 to 100 nM.
Regarding `CC(C)n1cc(C(=O)Nc2ccc(Oc3cc(-c4cn(C)cn4)cn4nccc34)nc2)c(=O)n(-c2ccc(F)cc2)c1=O` [Example 116, 3-(4-Fluoro-phenyl)-1-isopropyl-2,4-dioxo-1,2,3,4-tetrahydro-pyrimidine-5-carboxylic acid{6-[6-(1-methyl-1H-imidazol-4-yl)-pyrazolo[1,5-a]pyridin-4-yloxy]-pyridin-3-yl}-amide], the IC50 was below 10 nM.
With `CCOc1ccn(-c2ccc(F)cc2)c(=O)c1C(=O)Nc1ccc(Oc2cc(-c3cn(C)cn3)cn3nccc23)cc1` [Example 118, 4-Ethoxy-1-(4-fluoro-phenyl)-2-oxo-1,2-dihydro-pyridine-3-carboxylic acid {4-[6-(1-methyl-1H-imidazol-4-yl)-pyrazolo[1,5-a]pyridin-4-yloxy]-phenyl}-amide], the IC50 is below 10 nM.
Take `CCn1nc(C(=O)Nc2ccc(Oc3cc(-c4cn(C)cn4)cn4nccc34)cn2)c(=O)n(-c2ccc(F)cc2)c1=O` [Example 130, 2-Ethyl-4-(4-fluoro-phenyl)-3,5-dioxo-2,3,4,5-tetrahydro-1,2,4-triazine-6-carboxylic acid{5-[6-(1-methyl-1H-imidazol-4-yl)-pyrazolo[1,5-a]pyridin-4-yloxy]-pyridin-2-yl}-amide]: the IC50 is below 10 nM.
As to `CC(C)n1cc(C(=O)Nc2ccc(Oc3cc(-c4ncccn4)cn4nccc34)c(F)c2)c(=O)n(-c2ccc(F)cc2)c1=O` [Example 133, 3-(4-Fluoro-phenyl)-1-isopropyl-2,4-dioxo-1,2,3,4-tetrahydro-pyrimidine-5-carboxylic acid[3-fluoro-4-(6-pyrimidin-2-yl-pyrazolo[1,5-a]pyridin-4-yloxy)-phenyl]-amide], the IC50 lay in the range of 10 to 100 nM.
For the compound `O=C(Nc1ccc(Oc2cccn3nccc23)cc1)c1cnn(-c2ccccc2)c1C(F)(F)F` [Example 19, 1-Phenyl-5-trifluoromethyl-1H-pyrazole-4-carboxylic acid [4-(pyrazolo[1,5-a]pyridin-4-yloxy)-phenyl]-amide], the IC50 fell in the range of 1000 to 10000 nM.
With `O=C(Nc1ccc(Oc2cc(Nc3ccccc3)cn3nccc23)c(F)c1)c1cccn(-c2ccc(F)cc2)c1=O` [Example 80, 1-(4-Fluoro-phenyl)-2-oxo-1,2-dihydro-pyridine-3-carboxylic acid[3-fluoro-4-(6-phenylamino-pyrazolo[1,5-a]pyridin-4-yloxy)-phenyl]-amide], the IC50 was below 10 nM.
With `O=C(Cc1ccc(F)cc1)NC(=S)Nc1ccc(Oc2cccn3nccc23)c(F)c1` [Example 6, 1-[2-(4-Fluoro-phenyl)-acetyl]-3-[3-fluoro-4-(pyrazolo[1,5-a]pyridin-4-yloxy)-phenyl]-thiourea], the IC50 fell in the range of 10 to 100 nM.
With `O=C(Nc1ccc(Oc2cc(-c3cncs3)cn3nccc23)c(F)c1)c1cccn(-c2ccc(F)cc2)c1=O` [Example 105, 1-(4-Fluoro-phenyl)-2-oxo-1,2-dihydro-pyridine-3-carboxylic acid[3-fluoro-4-(6-thiazol-5-yl-pyrazolo[1,5-a]pyridin-4-yloxy)-phenyl]-amide] the figure was below 10 nM; with `O=C(Nc1ccc(Oc2cc(N3CCC4(CC3)OCCO4)cn3nccc23)c(F)c1)c1cccn(-c2ccc(F)cc2)c1=O` [Example 67, 1-4-(Fluoro-phenyl)-2-oxo-1,2-dihydro-pyridine-3-carboxylic acid{4-[6-(1,4-dioxa-8-aza-spiro[4,5]dec-8-yl)-pyrazolo[1,5-a]pyridin-4-yloxy]-3-fluoro-phenyl}-amide], 10 to 100 nM.
Regarding `CCNc1ccn(-c2ccc(F)cc2)c(=O)c1C(=O)Nc1ccc(Oc2cccn3nccc23)c(F)c1` [Example 15, 4-Ethylamino-1-(4-fluoro-phenyl)-2-oxo-1,2-dihydro-pyridine-3-carboxylic acid [3-fluoro-4-(pyrazolo[1,5-a]pyridin-4-yloxy)-phenyl]-amide], the IC50 fell in the range of 10 to 100 nM.
Take `CCOCCOc1ccn(-c2ccc(F)cc2)c(=O)c1C(=O)Nc1ccc(Oc2cccn3nccc23)c(F)c1` [Example 14, 4-(2-Ethoxy-ethoxy)-1-(4-fluoro-phenyl)-2-oxo-1,2-dihydro-pyridine-3-carboxylic acid [3-fluoro-4-(pyrazolo[1,5-a]pyridin-4-yloxy)-phenyl]-amide]: the IC50 was in the range of 10 to 100 nM.
As for `Cc1ccc(C(=O)Nc2ccc(Oc3cc(Nc4ccc(F)cn4)cn4nccc34)c(F)c2)c(=O)n1-c1ccc(F)cc1` [Example 83, 1-(4-Fluoro-phenyl)-6-methyl-2-oxo-1,2-dihydro-pyridine-3-carboxylic acid {3-fluoro-4-[6-(5-fluoro-pyridin-2-ylamino)-pyrazolo[1,5-a]pyridin-4-yloxy]-phenyl}-amide], the IC50 is below 10 nM.
For the compound `CCn1cc(C(=O)Nc2ccc(Oc3cc(Nc4ncccn4)cn4nccc34)c(F)c2)c(=O)n(-c2ccc(F)cc2)c1=O` [Example 84, 1-Ethyl-3-(4-fluoro-phenyl)-2,4-dioxo-1,2,3,4-tetrahydro-pyrimidine-5-carboxylic acid{3-fluoro-4-[6-(pyrimidin-2-ylamino)-pyrazolo[1,5-a]pyridin-4-yloxy]-phenyl}-amide], the IC50 was 10 to 100 nM.
Consider `CC(C)n1cc(C(=O)Nc2ccc(Oc3cc(NC(=O)N4CCN(C)CC4)cn4nccc34)c(F)c2)c(=O)n(-c2ccc(F)cc2)c1=O` [Example 150, 3-(4-Fluoro-phenyl)-1-isopropyl-2,4-dioxo-1,2,3,4-tetrahydro-pyrimidine-5-carboxylic acid(3-fluoro-4-{6-[(4-methyl-piperazine-1-carbonyl)-amino]-pyrazolo[1,5-a]pyridin-4-yloxy}-phenyl)-amide], for which the IC50 was in the range of 10 to 100 nM.
